Our source for the Emax and EC50 values is patent US10183021B2, “sGC stimulators” (Ironwood Pharmaceuticals, Inc., priority 2013, dated 2019).

For orientation: Emax means the maximal effect, on the per cent scale that the assay sets. By EC50 is commonly meant the concentration needed to bring the measured effect to its halfway point.

The experiment concerns the target soluble guanylate cyclase (sGC) (Homo sapiens (Human), UniProt Q02108+Q02153). Put plainly: sGC-HEK-cGMP assay with SNP incubation, LC/MS detection (Example 2A). The note with it: HEK293 cells, 10 μM SNP, LC/MS detection; for Emax: 100% = BAY 41-2272 at 10 μM, read-out: HEK assay Emax - unconstrained (%); for EC50: top of curve not fitted to 100%, read-out: HEK assay EC50 - unconstrained. Format: cell-based. The gist of the method:
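HEK293 cells with endogenous sGC were pretreated 15 min at 37 °C with 0.5 mM IBMX, then exposed 10 min at 37 °C to compound (added from 0.0001–30 μM solutions) plus SNP (from 10 μM solution). After 0.1 M HCl lysis, cGMP was quantified by LC/MS against a standard curve.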

soluble guanylate cyclase (sGC), sequence (Q02153 whole entry): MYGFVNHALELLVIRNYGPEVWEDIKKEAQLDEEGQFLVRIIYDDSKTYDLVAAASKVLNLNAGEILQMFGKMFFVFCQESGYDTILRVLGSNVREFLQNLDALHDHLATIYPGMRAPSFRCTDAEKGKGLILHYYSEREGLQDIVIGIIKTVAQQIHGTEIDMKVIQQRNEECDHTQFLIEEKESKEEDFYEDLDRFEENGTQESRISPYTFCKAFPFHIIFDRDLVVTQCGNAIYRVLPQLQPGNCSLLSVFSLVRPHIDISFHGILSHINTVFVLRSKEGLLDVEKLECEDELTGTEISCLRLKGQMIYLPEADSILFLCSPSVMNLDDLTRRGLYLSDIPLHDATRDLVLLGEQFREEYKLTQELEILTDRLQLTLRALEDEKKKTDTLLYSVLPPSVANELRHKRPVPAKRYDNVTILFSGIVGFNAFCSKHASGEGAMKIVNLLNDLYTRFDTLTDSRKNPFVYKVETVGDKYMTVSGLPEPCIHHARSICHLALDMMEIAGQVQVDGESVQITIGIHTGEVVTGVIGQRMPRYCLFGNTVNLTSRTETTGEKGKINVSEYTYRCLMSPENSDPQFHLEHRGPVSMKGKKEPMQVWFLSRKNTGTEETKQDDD
soluble guanylate cyclase (sGC), sequence (Q02108 whole entry): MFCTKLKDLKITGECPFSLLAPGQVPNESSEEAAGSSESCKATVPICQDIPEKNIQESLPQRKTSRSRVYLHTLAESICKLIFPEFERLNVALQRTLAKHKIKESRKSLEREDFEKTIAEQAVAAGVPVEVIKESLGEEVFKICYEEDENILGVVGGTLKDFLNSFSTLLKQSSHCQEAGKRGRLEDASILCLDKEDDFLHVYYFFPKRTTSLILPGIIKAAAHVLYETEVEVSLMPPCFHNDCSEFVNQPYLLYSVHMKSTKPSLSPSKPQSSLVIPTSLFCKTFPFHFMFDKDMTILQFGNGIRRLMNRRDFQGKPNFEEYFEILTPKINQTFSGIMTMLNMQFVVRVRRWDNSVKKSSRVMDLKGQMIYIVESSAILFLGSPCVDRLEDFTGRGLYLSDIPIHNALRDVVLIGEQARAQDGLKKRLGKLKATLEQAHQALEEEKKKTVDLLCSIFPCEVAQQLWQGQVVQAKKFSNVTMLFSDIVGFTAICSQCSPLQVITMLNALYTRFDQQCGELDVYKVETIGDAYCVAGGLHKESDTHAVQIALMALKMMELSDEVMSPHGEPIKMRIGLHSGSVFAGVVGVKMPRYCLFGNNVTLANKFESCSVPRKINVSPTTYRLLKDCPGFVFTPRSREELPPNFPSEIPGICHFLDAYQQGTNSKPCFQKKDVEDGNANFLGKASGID

With `C[C@H](C[C@H](Nc1nc(-c2cc(-c3ccon3)n(Cc3ccccc3F)n2)ncc1F)C(=O)O)C(F)(F)F` [Compound I-224], the Emax is 60 to 80% and the EC50 is 1000 to 5000 nM.
As for `C[C@H](C[C@@H](Nc1nc(-c2cc(-c3ccon3)n(Cc3ccccc3F)n2)ncc1F)C(=O)O)C(F)(F)F` [Compound I-225], the maximum response (Emax) lay within 80 to 100% and the EC50 was in the range of 1 to 100 nM.
Take `CC(C)(F)C(Nc1nc(-c2cc(-c3ccon3)n(Cc3ccccc3F)n2)ncc1F)C(=O)O` (stereo not drawn) [Compound I-226]: the maximal effect (Emax) lay within 60 to 80% and the concentration giving a half-maximal response (EC50) lay within 1 to 100 nM.
Regarding `O=C(O)[C@@H](Nc1nc(-c2cc(-c3ccon3)n(Cc3ccccc3F)n2)ncc1F)C1CC1` [Compound I-227], the maximum response (Emax) fell in the range of 20 to 40% and the concentration for a half-maximal effect (EC50) is 100 to 500 nM.
As for `CN(CC1(C(=O)O)CCCC1)c1nc(-c2cc(-c3ccon3)n(Cc3ccccc3F)n2)ncc1F` [Compound I-228], the Emax was 0 to 10% and the 50% effective concentration (EC50) was > 10000 nM.
On the same counts, the results for `O=C(O)CC1CCCN(c2nc(-c3cc(-c4ccon4)n(Cc4ccccc4F)n3)ncc2F)C1` (stereo not drawn) [Compound I-229] are 20 to 40% and > 10000 nM.
Take `COC(=O)CC1CCN(c2nc(-c3cc(-c4ccon4)n(Cc4ccccc4F)n3)ncc2F)CC1` [Compound I-231]: the Emax was 40 to 60% and the EC50 was > 10000 nM.
For `COCCC(Nc1nc(-c2cc(-c3ccon3)n(Cc3ccccc3F)n2)ncc1F)C(=O)O` (stereo not drawn) [Compound I-232] the same measures were 80 to 100% and 1000 to 5000 nM.
As to `O=C(O)C(Nc1nc(-c2cc(-c3ccon3)n(Cc3ccccc3F)n2)ncc1F)C1CCCCC1` (stereo not drawn) [Compound I-233], the Emax was 60 to 80% and the concentration for a half-maximal effect (EC50) was in the range of 100 to 500 nM.
As to `O=C(O)CCC1CCN(c2nc(-c3cc(-c4ccon4)n(Cc4ccccc4F)n3)ncc2F)CC1` [Compound I-234], the maximum response (Emax) lay within 80 to 100% and the EC50 was in the range of 100 to 500 nM.
For the molecule `CC(C)[C@@H](C(=O)O)N(C)c1nc(-c2cc(-c3ccon3)n(Cc3cccc(F)c3F)n2)ncc1F` [Compound I-235], the Emax is 100 to 120% and the half-maximal effective concentration (EC50) was in the range of 1 to 100 nM.
For `CC(C)[C@H](c1nnn[nH]1)N(C)c1nc(-c2cc(-c3ccon3)n(Cc3ccccc3F)n2)ncc1F` [Compound I-237] the same measures were 60 to 80% and 100 to 500 nM.
For `CN(CC1(C(=O)O)CCOCC1)c1nc(-c2cc(-c3ccon3)n(Cc3ccccc3F)n2)ncc1F` [Compound I-238] the same measures were 60 to 80% and 100 to 500 nM.
On the same counts, the results for `O=C(O)[C@H](Nc1nc(-c2cc(-c3ccon3)n(Cc3ccccc3F)n2)ncc1F)C1CC1` [Compound I-240] are 60 to 80% and 500 to 1000 nM.
On to `CN(c1nc(-c2cc(-c3ccon3)n(Cc3ccccc3F)n2)ncc1F)[C@@H](C(=O)O)C1CC1` [Compound I-241], for which the maximal effect (Emax) lay within 80 to 100% and the EC50 is 100 to 500 nM.
`CN(c1nc(-c2cc(-c3ccon3)n(Cc3ccccc3F)n2)ncc1F)[C@@H]1CCCC[C@H]1C(=O)O` [Compound I-242]: the Emax was in the range of 100 to 120% and the half-maximal effective concentration (EC50) fell in the range of 100 to 500 nM.
Consider `O=C(O)[C@H](Nc1nc(-c2cc(-c3ccon3)n(Cc3ccccc3F)n2)ncc1F)C1CCCCC1` [Compound I-243, (R)-2-cyclohexyl-2-((5-fluoro-2-(1-(2-fluorobenzyl)-5-(isoxazol-3-yl)-1H-pyrazol-3-yl)pyrimidin-4-yl)amino)acetic acid], for which the maximal effect (Emax) was 80 to 100% and the EC50 lay within 1 to 100 nM.
Take `CN(c1nc(-c2cc(-c3ccon3)n(Cc3ccccc3F)n2)ncc1F)C(CC(F)(F)F)C(=O)O` (stereo not drawn) [Compound I-244]: the Emax fell in the range of 80 to 100% and the concentration giving a half-maximal response (EC50) was 500 to 1000 nM.
For `CCOC(=O)CN(c1nc(-c2cc(-c3ccon3)n(Cc3ccccc3F)n2)ncc1F)C1(C)CCOCC1` [Compound I-246] the same measures were 40 to 60% and 1000 to 5000 nM.
For `CCC(C)[C@H](C(=O)O)N(C)c1nc(-c2cc(-c3ccon3)n(Cc3ccccc3F)n2)ncc1F` (stereo partly drawn) [Compound I-247] the same measures were 80 to 100% and 1 to 100 nM.
As to `CC(C)(C)[C@H](CC(=O)O)Nc1nc(-c2cc(-c3ccon3)n(Cc3ccccc3F)n2)ncc1F` [Compound I-251], the maximal effect (Emax) fell in the range of 60 to 80% and the 50% effective concentration (EC50) was 100 to 500 nM.
For `CCC(CC)(CN(C)c1nc(-c2cc(-c3ccon3)n(Cc3ccccc3F)n2)ncc1F)C(=O)O` [Compound I-252] the same measures were 60 to 80% and 1 to 100 nM.
On the same counts, the results for `O=C(O)c1ccccc1C1CCN(c2nc(-c3cc(-c4ccon4)n(Cc4ccccc4F)n3)ncc2F)CC1` [Compound I-254] are 80 to 100% and 1 to 100 nM.
Turning to `O=C(O)C1(c2ccc(F)cc2)CCN(c2nc(-c3cc(-c4ccon4)n(Cc4ccccc4F)n3)ncc2F)CC1` [Compound I-255], the Emax fell in the range of 80 to 100% and the half-maximal effective concentration (EC50) was 1 to 100 nM.
With `CCC(C)(C)C1(C(=O)O)CCN(c2nc(-c3cc(-c4ccon4)n(Cc4ccccc4F)n3)ncc2F)CC1` [Compound I-256], the Emax lay within 80 to 100% and the half-maximal effective concentration (EC50) was in the range of 100 to 500 nM.
Take `CC(C)CC(Nc1nc(-c2cc(-c3ccon3)n(Cc3ccccc3F)n2)ncc1F)C(=O)NS(C)(=O)=O` (stereo not drawn) [Compound I-259]: the maximal response (Emax) is 100 to 120% and the EC50 is 100 to 500 nM.
On the same counts, the results for `CC(C)[C@@H](C(=O)O)N(C)c1ccnc(-c2cc(-c3ccon3)n(Cc3ccccc3F)n2)n1` [Compound I-272] are 60 to 80% and 100 to 500 nM.
On the same counts, the results for `O=C(O)CN(CC(F)(F)F)c1nc(-c2cc(-c3ccon3)n(Cc3ccccc3F)n2)ncc1F` [Compound I-273] are 60 to 80% and 500 to 1000 nM.
With `CN(Cc1cccc(C(=O)O)c1)c1nc(-c2cc(-c3ccon3)n(Cc3ccccc3F)n2)ncc1F` [Compound I-274], the maximal response (Emax) was in the range of 100 to 120% and the concentration giving a half-maximal response (EC50) lay within 1 to 100 nM.
Consider `CN(Cc1ccc(C(=O)O)cc1)c1nc(-c2cc(-c3ccon3)n(Cc3ccccc3F)n2)ncc1F` [Compound I-275], for which the maximal effect (Emax) is 80 to 100% and the concentration for a half-maximal effect (EC50) is 1 to 100 nM.
For `Fc1ccccc1Cn1nc(-c2ncc(F)c(Nc3nnn[nH]3)n2)cc1-c1ccon1` [Compound I-276] the same measures were 40 to 60% and 100 to 500 nM.
Turning to `CC(C)(CC(=O)O)Nc1nc(-c2cc(-c3ccon3)n(Cc3ccccc3F)n2)ncc1F` [Compound I-277], the maximal response (Emax) is 60 to 80% and the half-maximal effective concentration (EC50) lay within 100 to 500 nM.
Take `O=c1ccc(CNc2nc(-c3cc(-c4ccon4)n(Cc4ccccc4F)n3)ncc2F)c[nH]1` [Compound I-278]: the Emax was in the range of 80 to 100% and the EC50 is 100 to 500 nM.
For the molecule `CN(Cc1ccccc1C(=O)O)c1nc(-c2cc(-c3ccon3)n(Cc3ccccc3F)n2)ncc1F` [Compound I-279], the maximum response (Emax) was in the range of 80 to 100% and the EC50 lay within 100 to 500 nM.
Regarding `O=C(O)c1ccc(CNc2nc(-c3cc(-c4ccon4)n(Cc4ccccc4F)n3)ncc2F)cc1` [Compound I-280], the Emax is 100 to 120% and the concentration giving a half-maximal response (EC50) is 100 to 500 nM.
On the same counts, the results for `O=C(NS(=O)(=O)N1CCN(c2nc(-c3cc(-c4ccon4)n(Cc4ccccc4F)n3)ncc2F)CC1)C1CC1` [Compound I-285] are 100 to 120% and 1 to 100 nM.
Regarding `Oc1ccc(CNc2nc(-c3cc(-c4ccon4)n(Cc4ccccc4F)n3)ncc2F)cc1` [Compound I-286], the Emax lay in the range of 80 to 100% and the EC50 was in the range of 1 to 100 nM.
For `CS(=O)(=O)c1ccc(CNc2nc(-c3cc(-c4ccon4)n(Cc4ccccc4F)n3)ncc2F)cc1` [Compound I-287] the same measures were 80 to 100% and 100 to 500 nM.
For `Oc1ccccc1CNc1nc(-c2cc(-c3ccon3)n(Cc3ccccc3F)n2)ncc1F` [Compound I-288] the same measures were 80 to 100% and 100 to 500 nM.
With `CC1(CC(=O)O)CCN(c2nc(-c3cc(-c4ccon4)n(Cc4ccccc4F)n3)ncc2F)CC1` [Compound I-289], the Emax fell in the range of 60 to 80% and the EC50 was 100 to 500 nM.
With `O=C(O)C1(C2CCCCC2)CCN(c2nc(-c3cc(-c4ccon4)n(Cc4ccccc4F)n3)ncc2F)CC1` [Compound I-290], the Emax lay within 60 to 80% and the 50% effective concentration (EC50) is 100 to 500 nM.
Regarding `O=C(O)C(CCNc1nc(-c2cc(-c3ccon3)n(Cc3ccccc3F)n2)ncc1F)c1ccccc1` (stereo not drawn) [Compound I-292], the Emax was 80 to 100% and the EC50 is 1 to 100 nM.
For `COC(=O)C1(N)CCN(c2nc(-c3cc(-c4ccon4)n(Cc4ccccc4F)n3)ncc2F)CC1` [Compound I-298] the same measures were 60 to 80% and 100 to 500 nM.
In the case of `NC1(C(=O)O)CCN(c2nc(-c3cc(-c4ccon4)n(Cc4ccccc4F)n3)ncc2F)CC1` [Compound I-299], the Emax is 40 to 60% and the concentration for a half-maximal effect (EC50) lay within 1000 to 5000 nM.
For the molecule `O=C(O)[C@@H]1CC(F)(F)CN1c1nc(-c2cc(-c3ccon3)n(Cc3ccccc3F)n2)ncc1F` [Compound I-301], the Emax was in the range of 60 to 80% and the EC50 was in the range of 1000 to 5000 nM.
